# Assay results as given in PubChem BioAssay AID2060507 (Molecular Pharmacology Branch, DTP, NCI, 2025).
# Tested on: 519858-162-T-J1-PDC complex spheroid viability
# Assay: Anticancer human tumor 519858-162-T-J1-PDC patient-derived colon adenocarcinoma cell line growth inhibition [GQUAD]
# Details: for IC50: curve of first compound; for viability, T/C: stronger effect = lower value
# Text: DNA G-quadruplex Stabilizer Agents in Combinations in Complex Spheroids
# A high-throughput screen of multi-cell type tumor spheroids was designed to identify active combinations of DNA G-quadruplex stabilizer agents and targeted small molecules. Complex spheroids include a stromal component modeled by human endothelial cells (HUVEC) and fibroblasts modeled by human mesenchymal stem cells (MSCs). The concentration ranges selected for each drug and investigational agent were based upon clinically achievable concentrations if the clinical Cmax of the agent was known.
# Compounds. The drugs and investigational agents: pidnarulex (CX-5461; NSC782164), APTO-253 (NSC789042), BRACO-19 (NSC847499), peposertib (NSC802822), ceralasertib (NSC780249), elimusertib (NSC800525), camonsertib (NSC841442), AZD-1390 (NSC803789), olaparib (NSC753686), talazoparib (NSC767125), ART-558 (NSC835418), sotorasib (NSC818433), MRTX-1133 (NSC836407), SN-38 (NSC673596), topotecan (NSC609699), etoposide (NSC141540), doxorubicin (NSC123127), gemcitabine (NSC613327), 5-fluorouracil (NSC19893), paclitaxel (NSC125973), vemurafenib (NSC761431), panobinostat (NSC761190), R-306465 (JNJ-16241199; NSC773264), adavosertib (NSC754352), TP-3654 (NSC805149), carboplatin (NSC241240), KSQ-4279 (NSC840948), and staurosporine (NSC755774) were obtained from the National Cancer Institute (NCI) Developmental Therapeutics Program Chemical Repository (34). The FDA-approved anticancer drug set is available from the NCI Developmental Therapeutics Program. […] The stock solutions were prepared in dimethyl sulfoxide (DMSO, Sigma-Aldrich, St. Louis, MO, cat. D2650) at 800-fold the tested concentration and stored at -70 degrees C prior to their use. All drugs and investigational agents were tested over a range starting from a high concentration at or near the clinical Cmax and decreasing in half-log increments. If the clinical Cmax for an agent had not been determined, the highest concentration tested was 10 microM.
# 2.3 Cell Culture. All cells were maintained in an incubator at 37 degrees C and 5% CO2 with 95% humidity. The PDC lines were cultured according to standard operating procedures established by the NCI PDMR. All PDCs were thawed and cultured in Matrigel-coated flasks prepared with a working solution of 1X Ham's F-12 nutrient mix, without supplementation (Invitrogen, cat. 11765054), 100 U/mL penicillin-streptomycin (Invitrogen, cat. 15140122), and 2.5% Matrigel (Corning Inc., cat. 354248) for the first three passages. The 857933-349-R-J2-PDC line was cultured in 6C/Colon 1B media, which includes advanced DMEM/F-12 (Thermo Fisher Scientific, cat. 12634028), 10 mM HEPES (Thermo Fisher Scientific, cat. 15630080), 1X GlutaMAX supplement (Thermo Fisher Scientific, cat. 35050061), 0.1 mg/mL primocin (InvivoGen, cat. ant-pm-2), 10% defined fetal bovine serum, heat inactivated (HyClone Laboratories Inc., cat. SH30070.03HI), 50% L-WRN conditioned media (ATCC, cat. CRL-3276), 1.25 mM N-Acetyl-L-cysteine (Sigma-Aldrich, cat. A9165), 10 mM nicotinamide (Sigma-Aldrich, cat. N0636), 1X B-27 supplement (Thermo Fisher Scientific, cat. 17504044), 1X N-2 supplement (Thermo Fisher Scientific, cat. 17502048), 10 microM Y-27632 dihydrochloride (Tocris Bioscience, cat. 1254), and 50 ng/mL human EGF recombinant protein (Thermo Fisher Scientific, cat. PHG0311). The 485176-168-R4-J1-PDC line was cultured in Panc media, which includes all 6C/Colon 1B media components plus 100 ng/mL human FGF-10 (Thermo Fisher Scientific, cat. 100-26), 500 nM SB-431542 (Selleckchem, cat. S1067), and gastrin (Tocris, cat. 3006).
# […]
# [1] = second compound 0.0316 µM, first compound 0.0316 µM
# [2] = second compound 0.0316 µM, first compound 0.1 µM
# [3] = second compound 0.0316 µM, first compound 0.316 µM
# [4] = second compound 0.0316 µM, first compound 1 µM
# [5] = second compound 0.0316 µM, first compound 3.16 µM
# [6] = second compound 0.0316 µM, first compound 10 µM
# [7] = second compound 0.1 µM, first compound 0.0316 µM
# [8] = second compound 0.1 µM, first compound 0.1 µM
# [9] = second compound 0.1 µM, first compound 0.316 µM
# [10] = second compound 0.1 µM, first compound 1 µM
# [11] = second compound 0.1 µM, first compound 3.16 µM
# [12] = second compound 0.1 µM, first compound 10 µM
# [13] = second compound 0.316 µM, first compound 0.0316 µM
# [14] = second compound 0.316 µM, first compound 0.1 µM
# [15] = second compound 0.316 µM, first compound 0.316 µM
# [16] = second compound 0.316 µM, first compound 1 µM
# [17] = second compound 0.316 µM, first compound 3.16 µM
# [18] = second compound 0.316 µM, first compound 10 µM
# [19] = second compound 1 µM, first compound 0.0316 µM
# [20] = second compound 1 µM, first compound 0.1 µM
# [21] = second compound 1 µM, first compound 0.316 µM
# [22] = second compound 1 µM, first compound 1 µM
# [23] = second compound 1 µM, first compound 3.16 µM
# [24] = second compound 1 µM, first compound 10 µM
# [25] = second compound 3.16 µM, first compound 0.0316 µM
# [26] = second compound 3.16 µM, first compound 0.1 µM
# [27] = second compound 3.16 µM, first compound 0.316 µM
# [28] = second compound 3.16 µM, first compound 1 µM
# [29] = second compound 3.16 µM, first compound 3.16 µM
# [30] = second compound 3.16 µM, first compound 10 µM
# [31] = second compound 10 µM, first compound 0.0316 µM
# [32] = second compound 10 µM, first compound 0.1 µM
# [33] = second compound 10 µM, first compound 0.316 µM
# [34] = second compound 10 µM, first compound 1 µM
# [35] = second compound 10 µM, first compound 3.16 µM
# [36] = second compound 10 µM, first compound 10 µM
# 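Further: spheroids exposed to compounds for 7 days.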
# 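Wherever viability, T/C is given: 100% = DMSO vehicle control viability.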
smiles,measurement,setting,value
CC1COCCN1c1cc(C2(S(C)(=N)=O)CC2)nc(-c2ccnc3[nH]ccc23)n1 (stereo unspecified) + CN(C)c1ccc(Nc2c3ccc(NC(=O)CCN4CCCC4)cc3nc3cc(NC(=O)CCN4CCCC4)ccc23)cc1,IC50,second compound 0.0316 µM,> 10 µM
same,IC50,second compound 0.1 µM,> 10 µM
same,IC50,second compound 0.316 µM,> 10 µM
same,IC50,second compound 1 µM,> 10 µM
same,IC50,second compound 3.16 µM,> 10 µM
same,IC50,second compound 10 µM,> 10 µM
same,"viability, T/C",[1],115%
same,"viability, T/C",[2],102%
same,"viability, T/C",[3],119%
same,"viability, T/C",[4],115%
same,"viability, T/C",[5],98.3%
same,"viability, T/C",[6],77.7%
same,"viability, T/C",[7],133%
same,"viability, T/C",[8],124%
same,"viability, T/C",[9],125%
same,"viability, T/C",[10],110%
same,"viability, T/C",[11],94.2%
same,"viability, T/C",[12],70%
same,"viability, T/C",[13],123%
same,"viability, T/C",[14],108%
same,"viability, T/C",[15],81.1%
same,"viability, T/C",[16],79.7%
same,"viability, T/C",[17],91.1%
same,"viability, T/C",[18],100%
same,"viability, T/C",[19],88.2%
same,"viability, T/C",[20],88.3%
same,"viability, T/C",[21],90.8%
same,"viability, T/C",[22],105%
same,"viability, T/C",[23],86.5%
same,"viability, T/C",[24],100%
same,"viability, T/C",[25],93.3%
same,"viability, T/C",[26],60.1%
same,"viability, T/C",[27],93.9%
same,"viability, T/C",[28],111%
same,"viability, T/C",[29],84.8%
same,"viability, T/C",[30],66.1%
same,"viability, T/C",[31],79.3%
same,"viability, T/C",[32],62.7%
same,"viability, T/C",[33],82.8%
same,"viability, T/C",[34],99.5%
same,"viability, T/C",[35],82.5%
same,"viability, T/C",[36],84.8%
COc1cc(C2c3cc4c(cc3C(OC3OC5COC(C)OC5C(O)C3O)C3COC(=O)C23)OCO4)cc(OC)c1O (stereo unspecified) + CN(C)c1ccc(Nc2c3ccc(NC(=O)CCN4CCCC4)cc3nc3cc(NC(=O)CCN4CCCC4)ccc23)cc1,IC50,second compound 0.0316 µM,> 10 µM
same,IC50,second compound 0.1 µM,> 10 µM
same,IC50,second compound 0.316 µM,> 10 µM
same,IC50,second compound 1 µM,> 10 µM
same,IC50,second compound 3.16 µM,> 10 µM
same,IC50,second compound 10 µM,> 10 µM
same,"viability, T/C",[1],87.2%
same,"viability, T/C",[2],80.1%
same,"viability, T/C",[3],83.5%
same,"viability, T/C",[4],69.2%
same,"viability, T/C",[5],80.7%
same,"viability, T/C",[6],103%
same,"viability, T/C",[7],68.6%
same,"viability, T/C",[8],81.8%
same,"viability, T/C",[9],79.6%
same,"viability, T/C",[10],94.3%
same,"viability, T/C",[11],60.8%
same,"viability, T/C",[12],84%
same,"viability, T/C",[13],93.5%
same,"viability, T/C",[14],95.8%
same,"viability, T/C",[15],80.5%
same,"viability, T/C",[16],61.8%
same,"viability, T/C",[17],77%
same,"viability, T/C",[18],62.7%
same,"viability, T/C",[19],85.4%
same,"viability, T/C",[20],65.2%
same,"viability, T/C",[21],64.9%
same,"viability, T/C",[22],65.9%
same,"viability, T/C",[23],77%
same,"viability, T/C",[24],80.3%
same,"viability, T/C",[25],59.8%
same,"viability, T/C",[26],76.2%
same,"viability, T/C",[27],65.3%
same,"viability, T/C",[28],74.1%
same,"viability, T/C",[29],101%
same,"viability, T/C",[30],67.6%
same,"viability, T/C",[31],55.6%
same,"viability, T/C",[32],69.2%
same,"viability, T/C",[33],73.6%
same,"viability, T/C",[34],64.3%
same,"viability, T/C",[35],74.8%
same,"viability, T/C",[36],83.8%
COc1cccc2c1C(=O)c1c(O)c3c(c(O)c1C2=O)CC(O)(C(=O)CO)CC3OC1CC(N)C(O)C(C)O1 (stereo unspecified) + Cc1[nH]c2ccc(F)cc2c1-c1nc2c3cccnc3c3ncccc3c2[nH]1,IC50,second compound 0.0316 µM,> 10 µM
same,IC50,second compound 0.1 µM,> 10 µM
same,IC50,second compound 0.316 µM,> 10 µM
same,IC50,second compound 1 µM,> 10 µM
same,IC50,second compound 3.16 µM,> 10 µM
same,IC50,second compound 10 µM,> 10 µM
same,"viability, T/C",[1],117%
same,"viability, T/C",[2],126%
same,"viability, T/C",[3],95.3%
same,"viability, T/C",[4],81.9%
same,"viability, T/C",[5],82.1%
same,"viability, T/C",[6],75.3%
same,"viability, T/C",[7],104%
same,"viability, T/C",[8],122%
same,"viability, T/C",[9],98.5%
same,"viability, T/C",[10],80.1%
same,"viability, T/C",[11],61.3%
same,"viability, T/C",[12],62.1%
same,"viability, T/C",[13],82.3%
same,"viability, T/C",[14],95.4%
same,"viability, T/C",[15],121%
same,"viability, T/C",[16],78.6%
same,"viability, T/C",[17],72.9%
same,"viability, T/C",[18],50.6%
same,"viability, T/C",[19],109%
same,"viability, T/C",[20],98.6%
same,"viability, T/C",[21],109%
same,"viability, T/C",[22],70.2%
same,"viability, T/C",[23],69.9%
same,"viability, T/C",[24],51.9%
same,"viability, T/C",[25],96.3%
same,"viability, T/C",[26],72.7%
same,"viability, T/C",[27],78.3%
same,"viability, T/C",[28],68.2%
same,"viability, T/C",[29],62.4%
same,"viability, T/C",[30],72.9%
same,"viability, T/C",[31],47%
same,"viability, T/C",[32],79.9%
same,"viability, T/C",[33],60.7%
same,"viability, T/C",[34],51.4%
same,"viability, T/C",[35],44%
same,"viability, T/C",[36],78.1%
